Measurements taken from patent US20250345329A1, “HETEROARYL DERIVATIVE COMPOUND AND USES THEREOF” (VORONOI, INC., priority 2022, published 2025).

What was measured:
[1] = tested on: Ba/F3 expressing EGFR Del19/T790M/C797S mutations; assay: Inhibitory activity on proliferation of Ba/F3 cell overexpressing EGFR C797S (Cell Titer-Glo); assay type: cell-based; settings: Mus musculus, BaF3; 72 hours treatment, cell growth rate vs control; read-out: Ba/F3 (EGFR DTC) GI50
Protocol: <Experimental Example 2> Evaluation of Inhibitory Activity on Proliferation of Ba/F3 Cell Overexpressing EGFR C797S
The following experiments were performed to evaluate the inhibitory activity of the compounds according to the present invention on the proliferation of Ba/F3 expressing EGFR Del19/T790M/C797S mutations.
Ba/F3 cells were cultured in RPMI-1640 medium supplemented with 10% fetal bovine serum (FBS), and 3000 cells were seeded into each well of a white clear bottom 96 well plate (Corning) 24 hours prior to compound treatment. The compounds were diluted in dimethyl sulfoxide (3-fold dilution, total of 12 concentrations) and injected at 1 μl each so that the final concentration was […] to 5 μM. After 72 hours post treatment with compounds, living cells were reacted in a 37° C., CO2 incubator for […], followed by 10 minutes at room temperature using Cell Titer-Glo luminescent cell-viability reagent (Promega), and the luminescence intensity thereof was measured using a reader (SynergyNeo2, Biotek). The result values were calculated as a cell growth rate (%) compared to the control group. GI50 values were calculated using the GraphPad Prism version 8.4.3 (GraphPad software Inc., San Diego) program.

[2] = biological target: T1, human EGFR (d746-750/T790M/C797S) (Homo sapiens, UniProt P00533, C797S/DEL746-750/T790M); assay: EGFR C797S enzyme inhibition activity (ADP-Glo kinase assay); assay type: biochemical; settings: purified enzyme 3 ng, ATP 5 μM, 25° C., 1 hour, luminescence; read-out: EGFR DTC Enzyme IC50
T1 construct: human EGFR (d746-750/T790M/C797S) (668-end, SignalChem); purchased SignalChem
T1 sequence (P00533 with tags, fused parts or gaps DEL746-750/T790M/C797S): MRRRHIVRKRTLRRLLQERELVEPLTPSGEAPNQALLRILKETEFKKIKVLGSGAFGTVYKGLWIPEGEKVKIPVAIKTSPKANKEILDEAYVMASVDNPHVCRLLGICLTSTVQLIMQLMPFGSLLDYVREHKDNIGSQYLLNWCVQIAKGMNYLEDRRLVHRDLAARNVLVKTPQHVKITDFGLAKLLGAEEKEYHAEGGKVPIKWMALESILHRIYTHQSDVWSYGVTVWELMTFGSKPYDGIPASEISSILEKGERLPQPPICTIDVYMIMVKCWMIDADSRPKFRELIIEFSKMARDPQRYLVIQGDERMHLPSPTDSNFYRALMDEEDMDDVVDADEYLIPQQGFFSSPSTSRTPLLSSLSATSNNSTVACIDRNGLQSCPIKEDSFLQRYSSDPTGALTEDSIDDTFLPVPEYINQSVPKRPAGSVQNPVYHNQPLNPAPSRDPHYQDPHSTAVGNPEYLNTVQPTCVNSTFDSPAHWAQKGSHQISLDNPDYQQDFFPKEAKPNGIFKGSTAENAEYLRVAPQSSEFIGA
Protocol: <Experimental Example 1> Evaluation of EGFR C797S Enzyme Inhibition Activity
The compounds according to the present invention were reacted together with purified human EGFR (d746-750/T790M/C797S) (668-end, SignalChem) enzyme and a specific substrate and evaluated for enzyme inhibitory activity as described below. The reaction buffer consisted of 40 mM Tris-HCl pH 7.4, 20 mM MgCl2, 0.5 mg/ml BSA, and 50 μM DTT, and all reactions of the test substances were performed in reaction buffers. The compounds were serially diluted in 12 steps from a 10 mM DMSO stock, and the enzyme activity was measured at the final compound concentrations of 10, 3, 1, 0.3, 0.1, 0.03, 0.01, 0.003, 0.001, 0.0003, 0.0001, and 0 μM. In the assay, human EGFR (d746-750/T790M/C797S) (3 ng) enzyme was reacted with purified ATP (5 μM) and enzyme substrate (0.2 μg) at 25° C. for 1 hour, and the enzyme activity was determined using the in vitro ADP-Glo™ kinase assay (Promega). The enzyme activity inhibition was measured via luminescence by reacting the enzyme activity reaction solution, ADP-Glo reaction solution, and enzyme activity detection solution in a 2:2:1 ratio. Based on the luminescence of the enzyme activity of the solvent control group that was not treated with the compound, the degree of the enzyme activity inhibition depending on the treatment concentration of each compound was calculated, wherein the concentration of each compound that inhibited the enzyme activity by 50% was determined as the IC50 (nM) value, which was obtained using GraphPad Prism 8.4.3 (GraphPad software Inc., San Diego).

## CO[C@H]1CCN(c2nccc(Nc3cc(NC4CCCC4)c(C(=O)N4CC(CS(C)(=O)=O)C4)cn3)n2)C[C@H]1F (relative stereo) [Example 13, (4-(cyclopentylamino)-6-((2-(cis-3-fluoro-4-methoxypiperidin-1-yl)pyrimidin-4-yl)amino)pyridin-3-yl)(3-((methylsulfonyl)meth-yl)azetidin-1-yl)methanone]
[1]
  GI50: 500 to 5000 nM
[2]
  IC50: 50 to 500 nM

## CO[C@H]1CCN(c2nccc(Nc3cc(NC4CCNC4)c(C(=O)N4CC(CS(C)(=O)=O)C4)cn3)n2)C[C@H]1F (relative stereo) [Example 15, (6-((2-(cis-3-fluoro-4-methoxypiperidin-1-yl)pyrimidin-4-yl)amino)-4-(pyrrolidin-3-ylamino)pyridin-3-yl)(3-((methylsulfonyl)meth-yl)azetidin-1-yl)methanone]
[1]
  GI50: 500 to 5000 nM
[2]
  IC50: 50 to 500 nM

## CO[C@H]1CCN(c2nccc(Nc3cc(NC(C)C)c(C(=O)N4CC(C#N)C4)cn3)n2)C[C@H]1F (relative stereo) [Example 17, 1-(6-((2-(cis-3-fluoro-4-methoxypiperidin-1-yl)pyrimidin-4-yl)amino)-4-(isopropylamino)nico-tinoyl)azetidine-3-carbonitrile]
[1]
  GI50: 500 to 5000 nM
[2]
  IC50: < 50 nM

## CO[C@H]1CCN(c2nccc(Nc3cc(NC(C)C)c(C(=O)Nc4cccc(N5CCN(C)CC5)c4)cn3)n2)C[C@H]1F (relative stereo) [Example 41, 6-((2-(cis-3-fluoro-4-methoxypiperidin-1-yl)pyrimidin-4-yl)amino)-4-(isopropylamino)-N-(3-(4-methylpiperaizn-1-yl)phenyl)nicotinamide]
[1]
  GI50: 500 to 5000 nM
[2]
  IC50: < 50 nM

## CO[C@H]1CCN(c2nccc(Nc3cc(NC(C)C)c(C(=O)Nc4cc(N5CCN(C)CC5)cc(C(C)(C)C#N)c4)cn3)n2)C[C@H]1F (relative stereo) [Example 42, N-(3-(2-cyanopropan-2-yl)-5-(4-methylpiperazin-1-yl)phenyl)-6-((2-(cis-3-fluoro-4-methoxypiperidin-1-yl)pyrimidin-4-yl)amino)-4-(isopropylamino)nico-tinamide]
[1]
  GI50: 500 to 5000 nM
[2]
  IC50: < 50 nM

## CO[C@H]1CCN(c2nccc(Nc3cc(NC(C)C)c(C(=O)NCCc4ccccc4)cn3)n2)C[C@H]1F (relative stereo) [Example 96, 6-((2-(cis-3-fluoro-4-methoxypiperidin-1-yl)pyrimidin-4-yl)amino)-4-(isopropylamino)-N-phenethylnicotinamide]
[1]
  GI50: 500 to 5000 nM
[2]
  IC50: 50 to 500 nM

## COC(=O)CCNC(=O)c1cnc(Nc2ccnc(N3CC[C@H](OC)[C@H](F)C3)n2)cc1NC(C)C (relative stereo) [Example 97, methyl 3-(6-((2-(cis-3-fluoro-4-methoxypiperidin-1-yl)pyrimidin-4-yl)amino)-4-(isopropylamino)nico-tinamido)propanoate]
[1]
  GI50: 500 to 5000 nM
[2]
  IC50: < 50 nM

## CO[C@H]1CCN(c2nccc(Nc3cc(NC(C)C)c(C(=O)NCCC(F)(F)F)cn3)n2)C[C@H]1F (relative stereo) [Example 98, 6-((2-(cis-3-fluoro-4-methoxypiperidin-1-yl)pyrimidin-4-yl)amino)-4-(isopropylamino)-N-(3,3,3-trifluoropropyl)nico-tinamide]
[1]
  GI50: < 500 nM
[2]
  IC50: < 50 nM

## CC(C)Nc1cc(Nc2ccnc(-c3cnn(S(=O)(=O)C4CC4)c3)n2)ncc1C(=O)N1CC(CS(C)(=O)=O)C1 [Example 1, (6-((2-(1-(cyclopropylsulfonyl)-1H-pyrazol-4-yl)pyrimidin-4-yl)amino)-4-(isopropylamin)pyri-din-3-yl)(3-((methylsulfonyl)meth-yl)azetidin-1-yl)methanone]
[1]
  GI50: 500 to 5000 nM
[2]
  IC50: < 50 nM

## CS(=O)(=O)CC1CN(C(=O)c2cnc(Nc3ccnc(-c4cnn(S(=O)(=O)C5CC5)c4)n3)cc2NC2CCCC2)C1 [Example 6, (4-(cyclopentylamino)-6-((2-(1-(cyclopropylsulfonyl)-1H-pyrazol-4-yl)pyrimidin-4-yl)amino)pyridin-3-yl)(3-((methylsulfonyl)meth-yl)azetidin-1-yl)methanone]
[1]
  GI50: 500 to 5000 nM
[2]
  IC50: < 50 nM

## CS(=O)(=O)CC1CN(C(=O)c2cnc(Nc3ccnc(-c4cnn(S(=O)(=O)C5CC5)c4)n3)cc2NC2CCOC2)C1 (centres unmarked) [Example 7, (6-((2-(1-(cyclopropylsulfonyl)-1H-pyrazol-4-yl)pyrimidin-4-yl)amino)-4-((tetrahydrofuran-3-yl)amino)pyridin-3-yl)(3-((methylsulfonyl)meth-yl)azetidin-1-yl)methanone]
[1]
  GI50: 500 to 5000 nM
[2]
  IC50: < 50 nM

## CC(C)Nc1cc(Nc2ccnc(-c3cnn(S(=O)(=O)C4CC4)c3)n2)ncc1C(=O)N1CC(C#N)C1 [Example 9, 1-(6-((2-(1-(cyclopropylsulfonyl)-1H-pyrazol-4-yl)pyrimidin-4-yl)amino)-4-(isopropylamino)nico-tinoyl)azetidine-3-carbonitrile]
[1]
  GI50: 500 to 5000 nM
[2]
  IC50: < 50 nM

## CC(C)Nc1cc(Nc2ccnc(N3CCOCC3)n2)ncc1C(=O)N1CC(CS(C)(=O)=O)C1 [Example 10, (4-(isopropylamino)-6-((2-morpholinopyrimidin-4-yl)amino)pyridin-3-yl)(3-((methylsulfonyl)meth-yl)azetidin-1-yl)methanone]
[1]
  GI50: 500 to 5000 nM
[2]
  IC50: < 50 nM

## CC(C)Nc1cc(Nc2ccnc(-c3cnn(S(=O)(=O)C4CC4)c3)n2)ncc1C(=O)Nc1cc(CN2CCN(C)CC2)cc(C(F)(F)F)c1 [Example 25, 6-((2-(1-(cyclopropylsulfonyl)-1H-pyrazol-4-yl)pyrimidin-4-yl)amino)-4-(isopropylamino)-N-(3-((4-methylpiperazin-1-yl)methyl)-5-(trifluoromethyl)phe-nyl)nicotinamide]
[1]
  GI50: 500 to 5000 nM
[2]
  IC50: 50 to 500 nM

## CC(C)Nc1cc(Nc2ccnc(-c3cnn(S(=O)(=O)C4CC4)c3)n2)ncc1C(=O)Nc1cnn(S(=O)(=O)C2CC2)c1 [Example 32, N-(1-(cyclopropylsulfonyl)-1H-pyrazol-4-yl)-6-((2-(1-(cyclopropylsulfonyl)-1H-pyrazol-4-yL)pyrimidin-4-yl)amino)-4-(isopropylamino)nico-tinamide]
[1]
  GI50: 500 to 5000 nM
[2]
  IC50: 50 to 500 nM

## CC(C)Nc1cc(Nc2ccnc(-c3cnn(S(=O)(=O)C4CC4)c3)n2)ncc1C(=O)NCCCN(C)C [Example 34, 6-((2-(1-(cyclopropylsulfonyl)-1H-pyrazol-4-yl)pyrimidin-4-yl)amino)-N-(3-(dimethylamino)pro-pyl)-4-(isopropylamino)nico-tinamide]
[1]
  GI50: 500 to 5000 nM
[2]
  IC50: < 50 nM

## CC(C)Nc1cc(Nc2ccnc(-c3cnn(S(=O)(=O)C4CC4)c3)n2)ncc1C(=O)NCCS(C)(=O)=O [Example 35, 6-((2-(1-(cyclopropylsulfonyl)-1H-pyrazol-4-yl)pyrimidin-4-yl)amino)-4-(isopropylamino)-N-(2-(methylsulfonyl)ethyl) nicotinamide]
[1]
  GI50: 500 to 5000 nM
[2]
  IC50: < 50 nM

## CC(C)Nc1cc(Nc2ccnc(-c3cnn(S(=O)(=O)C4CC4)c3)n2)ncc1C(=O)NC1CCS(=O)(=O)C1 (centres unmarked) [Example 36, 6-((2-(1-(cyclopropylsulfonyl)-1H-pyrazol-4-yl)pyrimidin-4-yl)amino)-N-(1,1-dioxydotetrahydrothi-ophen-3-yl)-4-(isopropylamino)nico-tinamide]
[1]
  GI50: 500 to 5000 nM
[2]
  IC50: < 50 nM

## CC(C)Nc1cc(Nc2ccnc(-c3cnn(S(=O)(=O)C4CC4)c3)n2)ncc1C(=O)Nc1cccc(N2CCN(C)CC2)c1 [Example 39, 6-((2-(1-(cyclopropylsulfonyl)-1H-pyrazol-4-yl)pyrimidin-4-yl)amino)-4-(isopropylamino)-N-(3-(4-methylpiperazin-1-yl)phenyl)nicotinamide]
[1]
  GI50: 500 to 5000 nM
[2]
  IC50: < 50 nM
